Measured values as given in patent US20230265065A1 (WEST VIRGINIA UNIVERSITY BOARD OF GOVERNORS ON BEHALF OF …, priority 2020, published 2023).
Entries after “also recorded” stand apart in the source; their conditions may differ.

How the values were obtained:
LAR [1] = molecular target: T1, LAR (Homo sapiens, UniProt P10586); assay: Standard phosphatase assay (DiFMUP) with LAR, pH 6.5, 22° C.
T1 sequence (P10586 1352-1607): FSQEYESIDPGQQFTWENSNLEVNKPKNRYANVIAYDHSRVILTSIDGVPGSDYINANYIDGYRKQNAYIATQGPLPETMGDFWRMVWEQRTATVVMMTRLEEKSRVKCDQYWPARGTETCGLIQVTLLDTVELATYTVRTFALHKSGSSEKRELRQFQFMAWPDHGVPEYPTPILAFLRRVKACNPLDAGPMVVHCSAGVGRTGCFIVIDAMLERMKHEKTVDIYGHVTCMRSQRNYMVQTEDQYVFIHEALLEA
Experimental: Enzyme activity assays are performed in black 96-well plates containing a total volume of 100 μL in each well. […] Prior to each assay, the enzyme is activated by incubating in Bis-Tris buffer (50 mM Bis-Tris pH 6.5, 100 mM NaCl, 0.01% Brij 35, 1 mM EDTA) with 5 μL of 100 mM TCEP on ice for 30 min. Buffer, enzyme, and either a DMSO control or the compound of interest are added to each well of the 96-well plate and incubated for 30 min at room temperature. After this 30-min preincubation period, the substrate DiFMUP is added to initiate the reaction. The observed fluorescence resulting from the hydrolysis of DiFMUP is measured every 60 s for 30 min in a SpectraMax M5 plate reader with excitation and emission wavelengths of 350 and 455 nm, respectively.
Assays to investigate time-dependent inhibition are performed as described in the initial inhibitory screen assays section with slight modifications. Buffer and enzyme are initially added to each well, followed by sequential addition of inhibitor starting from the longest incubation time to the shortest.
Assays to determine kobs values were performed as described in the Initial inhibitory screen assays section above with slight modification. Buffer, inhibitor and DMSO were added to each well as appropriate. Enzyme was then added to each well and allowed to incubate for the desired time, followed by addition of DiFMUP to initiate the assay.

PTPRδ [2] = molecular target: T2, PTPRδ (Homo sapiens, UniProt P23468); assay: Preliminary LAR-PTP inhibition assay at pH 8; format: biochemical; settings: pH 8, 100 μM compound, 30 min preincubation
T2 sequence (P23468 1357-1612): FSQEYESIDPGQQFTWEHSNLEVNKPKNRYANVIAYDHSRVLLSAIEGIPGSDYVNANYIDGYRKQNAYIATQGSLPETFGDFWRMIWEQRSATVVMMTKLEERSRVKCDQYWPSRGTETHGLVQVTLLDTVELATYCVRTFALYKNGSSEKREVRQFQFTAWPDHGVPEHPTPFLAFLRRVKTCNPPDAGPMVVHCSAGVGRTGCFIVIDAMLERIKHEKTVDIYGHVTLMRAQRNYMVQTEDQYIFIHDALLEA
Experimental: The illudalogs of this invention show inhibitory activity against LAR-PTPs in preliminary assays at pH 6.5 and pH 8 (FIG. 9). In all assays, 100 μM of compound was incubated with enzyme for 30 min prior to the assay. […] This apparent pH-dependence is consistent with the postulated two-stage binding mechanism and will be investigated further. There is some variation in potency and selectivity across the analogues, although these preliminary assays are not precise enough to support quantitative conclusions.

PTPRδ [3] = molecular target: T2, PTPRδ; assay: PTP panel inhibition, PTPRδ; format: biochemical; set-up: We maintain a library of PTP catalytic domains
SHP2 = molecular target: T3, SHP2 (Homo sapiens, UniProt Q06124); assay: PTP panel screen, SHP2; format: biochemical; settings: 250 nM
T3 construct: We maintain a library of PTP catalytic domains
T3 sequence (Q06124 247-517): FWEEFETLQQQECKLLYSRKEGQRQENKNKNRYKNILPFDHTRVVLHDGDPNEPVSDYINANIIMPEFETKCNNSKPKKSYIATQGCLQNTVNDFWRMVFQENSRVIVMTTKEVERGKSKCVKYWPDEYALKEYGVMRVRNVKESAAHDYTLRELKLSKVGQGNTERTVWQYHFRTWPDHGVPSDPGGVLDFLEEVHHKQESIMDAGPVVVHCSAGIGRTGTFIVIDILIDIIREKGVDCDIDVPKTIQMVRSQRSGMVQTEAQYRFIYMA
Experimental: (§1) We screen illudalogs against a panel of PTPs including PTPRD, as illustrated in FIG. 16. […] Typical experimental conditions are 5-10 nM enzyme, 1-10 μM DiFMUP, and 250 nM inhibitor at 37° C.

[4] = test system: LAR-PTP subfamily (LAR, PTPRσ, and PTPR^δ); assay: PTP panel screen, LAR-PTP subfamily; format: biochemical, human; settings: panel also with PTP1B, SHP2, and CD45
Experimental: as §1

PTPRD [5] = molecular target: T4, PTPRD (Homo sapiens, UniProt P23468); assay: PTPRD inhibitor screen and IC50 at pH 7.5 and 37° C.; format: biochemical; settings: 1 μM
T4 construct: We maintain a library of PTP catalytic domains
T4 sequence (P23468 1357-1612): T2 sequence (P23468 1357-1612)

PTPRD [6] = molecular target: T4, PTPRD; assay: as above; format: biochemical; settings: for PTPRD inhibition in preliminary screening assays: 1 μM and 250 nM; for IC50: pH 7.5 and 37° C.
CD45 = molecular target: T5, CD45 (Homo sapiens, UniProt P08575); assay: PTP panel inhibition, CD45; format: biochemical
T5 construct: We maintain a library of PTP catalytic domains
T5 sequence (P08575 653-912): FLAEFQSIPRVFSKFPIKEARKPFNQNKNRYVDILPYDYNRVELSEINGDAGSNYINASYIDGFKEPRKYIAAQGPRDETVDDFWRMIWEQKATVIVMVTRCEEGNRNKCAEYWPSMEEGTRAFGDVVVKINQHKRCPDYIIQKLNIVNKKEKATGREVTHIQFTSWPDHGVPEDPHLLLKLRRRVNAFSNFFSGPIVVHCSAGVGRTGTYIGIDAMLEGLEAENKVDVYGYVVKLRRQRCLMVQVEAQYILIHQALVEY

[7] = Storage stability as pure substance or in DMSO; format: physicochemical; settings: room temperature for six months
Text: As discussed above, our new synthetic approach focuses on convergent benzannulation, followed by conversion to the ortho-formyl hydroxy-lactone pharmacophore (FIG. 1). […] LiAlH4, then 6M HCl, ca. 40-70% yields of IAn compounds, which generally precipitate from aqueous acid as white crystalline solids. Intermediates 5 can be isolated for derivatization prior to acidic hydrolysis or advanced directly to the IAn compounds. Optimization is proposed and in progress. Currently, IA1 is produced in ca. 27% yield over 4 steps from 3. We have prepared >35 g of ester 2; ≥100 mg of IA1 and IA3; and ≥10 mg each of the other illudalog compounds of this invention. […] For IA1, we access β-keto amide 1a in two steps from known enal 3.^61 Other β-keto amides 1 provide parallel access to diverse illudalog cores (e.g., 1b→IA3, FIG. 1, bottom). We prepare β-keto ester 2^62 on multigram-scale using CDI-mediated decarboxylative coupling;^63 we have >35 g of 2 in stock. β-Keto ester 2 is the common building block for illudalogs prepared thus far; it comprises functional precursors to the hydroxy-lactone. The benzannulation is adapted from a known naphthol annulation.^64 The final reduction and hydrolysis sequence can be executed as a one-pot operation or with isolation of intermediate 5. Presumably, the deprotonated phenol directs reduction of the ortho-amide over the para-ester. […]

LAR [8] = molecular target: T1, LAR; assay: Reversibility of LAR inhibition by dialysis; format: biochemical; set-up: We maintain a library of PTP catalytic domains; settings: preliminary experiments

## COc1c(C=O)c2c(c3c1CC(C)(C)C3)C(=O)OC(O)C2 (stereo not drawn) [IA1-6OMe]
LAR [1]; 100 μM inhibitor, pH 6.5, 22 degrees Centigrade
  selectivity for LAR compared to other PTPs: more selective for LAR
LAR [1]; LAR, standard assays
  inhibitory activity in standard phosphatase assays: inhibit
  initial thermodynamic binding affinity K1: too weak
  kinetic covalent ligation rate kinact: too fast
LAR [1]; read-out: IC50 (LAR), standard assays, pH 6.5 and 22° C.
  IC50: 55000 ± 6000 nM
PTPRδ [2]
  potency and selectivity for PTPR^δ over other LAR-PTPs: potent and selective for PTPR^δ over LAR and PTPR^δ
PTPRδ [3]
  inhibition of PTPRδ activity: inhibit

## CC1(C)CCc2c(c(O)c(C=O)c3c2C(=O)OC(O)C3)C1 (stereo not drawn) [IA2-8Me2]
SHP2
  inhibition at 0.25 µM: > 50%
[4]; listed as 15
  potency and selectivity for the LAR subfamily: most potent and is selective for the LAR subfamily

## CC1(C)CCc2c(O)c(C=O)c3c(c2C1)C(=O)OC(O)C3 (stereo not drawn) [IA2-9Me2]
[4]; listed as 16
  potency and selectivity for the LAR subfamily: different selectivity profile within the LAR subfamily

## CCOc1c(C=O)c2c(c3ccccc13)C(=O)OC(O)C2 (stereo not drawn) [IA3-6OEt]
PTPRD [5]
  PTPRD inhibitory activity on rescreening: lower inhibitory activity

## COc1c(C=O)c2c(c3ccccc13)C(=O)OC(O)C2 (stereo not drawn) [IA3-6OMe]
PTPRD [5]
  PTPRD inhibitory activity on rescreening: lower inhibitory activity

## O=Cc1c2c(c3ccc(Br)cc3c1O)C(=O)OC(O)C2 (stereo not drawn) [IA3-8Br]
PTPRD [6]
  PTPRD inhibition in preliminary screening assays: potent PTPRD inhibitors

## C#Cc1ccc2c3c(c(C=O)c(O)c2c1)CC(O)OC3=O (stereo not drawn) [IA3-8C2H]
PTPRD [6]
  PTPRD inhibition in preliminary screening assays: potent PTPRD inhibitors

## O=Cc1c2c(c3cc(F)c(F)cc3c1O)C(=O)OC(O)C2 (stereo not drawn) [IA3-89F]
PTPRD [6]
  IC50: 51 ± 5 nM

## CC1(C)Cc2c(O)c(C=O)c3c(c2C1)C(=O)OC(O)C3 (stereo not drawn) [illudalic acid, reference compound]
PTPRD [6]
  IC50: 90 ± 14 nM
LAR [1]; LAR, standard assays
  inhibitory activity in standard phosphatase assays: active; also recorded: inhibit
PTPRδ [3]
  inhibition of PTPRδ activity: inhibit
CD45
  inhibition of CD45 activity: inhibited
[7]
  stability of NMR sample in DMSO: unchanged
LAR [8]
  recovery of enzyme activity by dialysis: enzyme activity cannot be recovered by dialysis
